Measured values from patent US20090163577A1, “METHODS AND COMPOSITIONS FOR ANTAGONIZING ANTI-APOPTOTIC Bcl-2-FAMILY PROTEINS” (Burnham Institute for Medical Research, priority 2007, published 2009).
Entries after “also recorded” stand apart in the source; their conditions may differ. Where two headings read alike, the source gives them in different places.

Key:
Bcl-B = biological target: T1, Bcl-B (Homo sapiens, UniProt Q9HD36); assay: FPA competitive FITC-Bid BH3 peptide displacement, Bcl-B; format: binding; conditions: 100 nM GST-Bcl-B, 5 nM FITC-Bid BH3 peptide, read-out: IC50 (μM) for Gambogic acid
T1 construct: lacking their C-terminal transmembrane domains (last 20 amino-acids) (“ΔTM”); made in house; host or cells: E. coli XL-1 Blue (pGEX 4T-1)
Source text: (§1) (A) Structure of gambogic acid.
(§2) Fluorescence Polarization Assays (FPAs).
(§3) Competitive Peptide Displacement Assays.

dividing cells = conditions: cited from earlier work
Bfl-1 = biological target: T2, Bfl-1 (Homo sapiens, UniProt Q16548); assay: FPA competitive FITC-Bid BH3 peptide displacement, Bfl-1 (also HTS); conditions: for activity in BH3 displacement assays: FPA, FITC-Bid BH3 peptide, compared with GA
T2 sequence (Q16548 1-155 limits assumed): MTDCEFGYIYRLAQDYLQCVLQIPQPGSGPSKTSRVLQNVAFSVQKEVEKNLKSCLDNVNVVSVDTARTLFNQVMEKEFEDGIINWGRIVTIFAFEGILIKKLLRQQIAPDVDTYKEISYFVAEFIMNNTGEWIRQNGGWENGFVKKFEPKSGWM

Mcl-1 = biological target: T3, Mcl-1 (Homo sapiens, UniProt Q07820); assay: FPA competitive FITC-Bid BH3 peptide displacement, Mcl-1; format: binding; conditions: 100 nM GST-Mcl-1, 5 nM FITC-Bid BH3 peptide, read-out: IC50 (μM) for Gambogic acid
T3 construct: lacking their C-terminal transmembrane domains (last 20 amino-acids) (“ΔTM”); made in house; host or cells: E. coli XL-1 Blue (pGEX 4T-1)
Source text: as §1, §2, §3

bax−/− bak−/− MEFs = assay: Cytotoxicity in bax-/- bak-/- MEFs; format: cell-based, mouse; conditions: 20 hrs; listed as GA
[1] = rats; cited from earlier work
tumor cell lines = tumor cell lines in culture; cited from earlier work
[2] = system: prostate cancer cell line PPC1; assay: Pro-caspase-3 processing, immunoblot, PPC1; format: cell-based; conditions: PPC1, 20 hrs, 0 to 10 μM
Procedure: To determine GA's affect on processing of pro-caspase-3, a marker of apoptosis, cells of the prostate cancer cell line PPC1 were treated with gambogic acid at concentrations from 0 to 10 μM. After 20 hrs, the cells were collected and the cell lysates were analyzed by SDS-PAGE/immunoblotting using anti-caspase 3 antibody. GA induced clearly detectable proteolytic processing of pro-caspase-3 at concentrations≧2 μM.

BIR3 of XIAP = assay: FPA, rhodamine-SMAC peptide binding to BIR3 of XIAP; conditions: not shown
[3] = system: Bcl-2 over-expressing HL-60 cells; assay: Cytotoxicity in NEO-control vs Bcl-2 over-expressing HL-60 cells; format: cell-based
Source text: Data are representative of at least 3 independent experiments.
(§4) Cell Culture, Transfection, and Apoptosis Assays.
We tested the cytotoxic activity of GA against HL-60 cells that had been stably transfected with NEO-control or Bcl-2-expression plasmids (Konopleva et al., Blood 95:3929-3938, 2000).

Bcl-W = biological target: T4, Bcl-W (Homo sapiens, UniProt Q92843); assay: FPA competitive FITC-Bid BH3 peptide displacement, Bcl-W; format: binding; conditions: 100 nM GST-Bcl-W, 5 nM FITC-Bid BH3 peptide, read-out: IC50 (μM) for Gambogic acid
T4 construct: lacking their C-terminal transmembrane domains (last 20 amino-acids) (“ΔTM”); made in house; host or cells: E. coli XL-1 Blue (pGEX 4T-1)
Source text: as §1, §2, §3

[4] = system: Jurkat T-cell acute lymphoblastic leukemia; assay: Apoptosis, Annexin V/PI staining, Jurkat; format: cell-based; conditions: Homo sapiens, within 20-24 hrs, read-out: concentration required to induce apoptosis of 50% of the cells
Procedure: (§5) Gambogic acid was used to treat HL-60 (black symbols) or Jurkat (white symbols) cells at concentrations of 0, 0.1, 0.2, 0.5, 2, 5 μM (from left to right).
as §4
(§6) GA overcomes cytoprotection of Bcl-2 in leukemia cells. GA has cytotoxic activity against various tumor cell lines in culture and induces apoptosis (Zhang et al., Bioorg. Med. Chem. 12:309-317, 2004; Zhao et al., Biol. Pharm. Bull. 27:998-1003, 2004). We confirmed the apoptosis-inducing activity of GA using Jurkat T-cell acute lymphoblastic leukemia and HL-60 acute promyelomonocytic leukemia cell lines, using Annexin V/propidium iodide (PI) staining, counting Annexin V+/PT− cells as apoptotic (FIG. 3). The concentration of GA required to induce apoptosis of 50% of the cells within 20-24 hrs was ˜0.2 μM and ˜0.5 μM for Jurkat and HL-60, respectively.

Bcl-XL = biological target: T5, Bcl-XL (Homo sapiens, UniProt Q07817); assay: FPA competitive FITC-Bid BH3 peptide displacement, Bcl-XL; format: binding; conditions: 100 nM GST-Bcl-XL, 5 nM FITC-Bid BH3 peptide, read-out: IC50 (μM) for Gambogic acid
T5 construct: lacking their C-terminal transmembrane domains (last 20 amino-acids) (“ΔTM”); made in house; host or cells: E. coli XL-1 Blue (pGEX 4T-1)
Source text: as §1, §2, §3

bax+/+ bak+/+ MEFs = assay: Cytotoxicity in wild-type MEFs; format: cell-based, mouse; conditions: 20 hrs
Source text: as §4
GA-induced cytotoxicity is only partly Bcl-2-dependent. Anti-apoptotic Bcl-2-family proteins suppress mitochondria-initiated cell death by inhibiting pro-apoptotic Bcl-2 members Bax and Bak (Kroemer and Reed, Nat. Med. 6:513-519, 2000; Reed, Am. J. Pathol. 157:1415-1430, 2000; Li et al., Cell 116 (2 Suppl.):S57-59, 2 p. following S59). Consequently, when cells are genetically engineered to lack Bax and Bak, then Bcl-2 and related cytoprotective proteins no long display an anti-apoptotic phenotype (Wei et al., Science 292:727-730, 2001). Cells doubly deficient in Bax and Bak therefore provide a context for assessing the mechanism of GA-induced toxicity. GA killed transformed mouse fibroblasts (MEFs) generated from bax+/+ bak+/+ embryos in a concentration-dependent manner (FIG. 6A). […] We conclude therefore that GA induces cytotoxicity through mechanisms that are only partly dependent on Bcl-2-family proteins.

[5] = system: Bax, Bcl-2, transferrin receptor; conditions: cited from earlier work
[6] = system: HL-60 acute promyelomonocytic leukemia; assay: Apoptosis, Annexin V/PI staining, HL-60; format: cell-based; conditions: Homo sapiens, HL-60, within 20-24 hrs, read-out: concentration required to induce apoptosis of 50% of the cells
Procedure: as §5, §4, §6

Hsp70 = Hsp70 (Homo sapiens, UniProt P0DMV8); assay: FPA, FITC-ATP binding to Hsp70; conditions: not shown
Bcl-2 = biological target: T6, Bcl-2 (Homo sapiens, UniProt P10415); assay: FPA competitive FITC-Bid BH3 peptide displacement, Bcl-2; format: binding
T6 construct: lacking their C-terminal transmembrane domains (last 20 amino-acids) (“ΔTM”); made in house; host or cells: E. coli XL-1 Blue (pGEX 4T-1)
Source text: as §1, §2, §3

[7] = system: anti-apoptotic Bcl-2-family proteins (Bcl-2, Bcl-XL, Bfl-1, Bcl-W, Mcl-1); assay: tBid-induced SMAC release from isolated HeLa mitochondria; format: biochemical, human
Procedure: Mitochondria Purification and Protein Release Assays. HeLa cells were pelleted by centrifugation, and then washed once in HM buffer (10 mM HEPES, pH 7.4, 250 mM mannitol, 10 mM KCl, 5 mM MgCl2, 1 mM EGTA), containing 1 mM PMSF and a mixture of protease inhibitors (Roche Molecular Biochemicals). The cell pellet was then homogenized in HM buffer by 50 strokes of a dounce homogenizer, using a B-type pestle. The homogenate was centrifuged twice at 600 g for 5 min to remove nuclei and debris. The resulting supernatant was centrifuged at 10,000 g for 10 min, and the resulting mitochondria-containing pellet was washed twice with the HM buffer.
For mitochondrial protein release assays, 10 μl of mitochondria (50 μg) were added into a final volume of 50 μl HM buffer containing gambogic acid, tBid or tBid pre-incubated with gambogic acid or Bcl-2 family proteins at 30° C. for 15 min. The reactions were further incubated at 30° C. for 40-60 min, then mitochondria were pelleted by centrifugation and the supernatants were collected, boiled in Laemmli sample buffer, and analyzed by SDS-PAGE/immunoblotting using anti-SMAC antibody (Zhai et al., J. Biol. Chem. 280:15815-15824, 2005).
GA neutralizes activity of Bcl-2-family proteins in vitro. An active, N-terminally truncated form of the pro-apoptotic BH3-containing protein Bid (tBid) induces release of apoptogenic proteins such as SMAC from isolated mitochondria in vitro (Becattini et al., Chem. Biol. 11:1107-1117, 2004; Zhai et al., J. Biol. Chem. 280:15815-15824, 2005; Luciano et al., J. Biol. Chem. 280:15825-15835, 2005). […] Samples were centrifuged to generate supernatants that were analyzed by SDS-PAGE/immunoblotting using anti-SMAC antibody. […] Complete restoration was typically achieved with 5 μM GA, representing an approximately 10:1 molar excess of GA relative to anti-apoptotic Bcl-2-family proteins.

GST-Bcl-XL = biological target: T7, GST-Bcl-XL (Homo sapiens, UniProt Q07817); assay: TR-FRET assay, FITC-Bad BH3 peptide binding to GST-Bcl-XL; conditions: 10 nM GST-Bcl-XL, 10 nM FITC-Bad BH3 peptide, read-out: apparent IC50, inhibition of FITC-Bad BH3 peptide binding
T7 construct: lacking their C-terminal transmembrane domains (last 20 amino-acids) (“ΔTM”); made in house; host or cells: E. coli XL-1 Blue (pGEX 4T-1)
Procedure: (A) Binding of GST-Bcl-XL to FITC-BH3 peptide was assayed by TR-FRET. The final reaction mixtures contain 10 nM of FITC-Bad BH3 peptide, 2 nM of anti-GST-Turbium, and various concentrations of GST-Bcl-XL proteins in PBS buffer containing 0.005% Tween 20. (B) Analysis of GA competition with BH3 peptide for Bcl-XL binding by TR-FRET. Reaction mixtures of final 20 μl volume contain 2 μl of various concentrations of GA with 10 nM FITC-Bad BH3 peptide, 2 nM anti-GST-Terbium, and 10 nM GST-Bcl-XL protein in PBS buffer containing 0.005% Tween 20. The mixtures are incubated for 30 min at room temperature. TR-FRET signals were measured using excitation at 330 nm, emission for FITC signal at 490 nm, and emission for terbium signal at 520 nm. Data are presented as 520 nm/490 nm ratio (mean±std dev; n=3).
Time-Resolved-Fluorescence Resonance Energy Transfer (TR-FRET) Assays. For TR-FRET assays, GST-Bcl-XL and anti-GST-terbium (Invitrogen) were mixed together with the FITC-Bad BH3 peptide in PBS containing 0.005% tween 20 in 96 well plates in a total volume of 20 μl per well. […] TR-FRET signals were measured with a SpectraMax M5 plate reader (Molecular Devices) using the following settings: excitation at 330 nm, emission for FITC signal at 490 nm, and emission for terbium signal at 520 nm. […]

Jurkat cells [8] = assay: Cytotoxicity of GA analogs, live cells by Annexin V/PI, Jurkat; conditions: 20 hrs, 0-50 μM
Jurkat cells [9] = system: Jurkat cells

T6 sequence (P10415 1-219 limits assumed): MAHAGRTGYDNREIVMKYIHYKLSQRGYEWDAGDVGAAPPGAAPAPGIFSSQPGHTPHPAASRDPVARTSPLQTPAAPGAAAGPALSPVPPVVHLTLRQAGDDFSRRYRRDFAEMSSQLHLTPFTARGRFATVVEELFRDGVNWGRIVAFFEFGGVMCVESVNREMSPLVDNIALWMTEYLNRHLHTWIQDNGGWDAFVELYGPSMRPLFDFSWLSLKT
T3 sequence (Q07820 1-330 limits assumed): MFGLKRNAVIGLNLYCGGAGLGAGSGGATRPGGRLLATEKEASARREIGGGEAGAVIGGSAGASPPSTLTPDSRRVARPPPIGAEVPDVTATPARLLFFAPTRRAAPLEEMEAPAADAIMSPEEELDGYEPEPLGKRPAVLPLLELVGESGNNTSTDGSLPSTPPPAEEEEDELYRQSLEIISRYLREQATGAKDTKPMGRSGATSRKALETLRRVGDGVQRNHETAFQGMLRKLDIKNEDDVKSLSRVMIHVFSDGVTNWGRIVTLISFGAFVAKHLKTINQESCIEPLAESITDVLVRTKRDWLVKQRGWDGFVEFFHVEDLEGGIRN
T1 sequence (Q9HD36 1-184 limits assumed): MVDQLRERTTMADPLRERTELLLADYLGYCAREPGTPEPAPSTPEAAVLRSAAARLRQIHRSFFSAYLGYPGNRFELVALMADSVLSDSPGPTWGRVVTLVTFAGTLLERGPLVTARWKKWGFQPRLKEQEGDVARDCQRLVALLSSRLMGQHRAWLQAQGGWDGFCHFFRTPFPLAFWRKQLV
Sequence of Hsp70 (P0DMV8 whole entry): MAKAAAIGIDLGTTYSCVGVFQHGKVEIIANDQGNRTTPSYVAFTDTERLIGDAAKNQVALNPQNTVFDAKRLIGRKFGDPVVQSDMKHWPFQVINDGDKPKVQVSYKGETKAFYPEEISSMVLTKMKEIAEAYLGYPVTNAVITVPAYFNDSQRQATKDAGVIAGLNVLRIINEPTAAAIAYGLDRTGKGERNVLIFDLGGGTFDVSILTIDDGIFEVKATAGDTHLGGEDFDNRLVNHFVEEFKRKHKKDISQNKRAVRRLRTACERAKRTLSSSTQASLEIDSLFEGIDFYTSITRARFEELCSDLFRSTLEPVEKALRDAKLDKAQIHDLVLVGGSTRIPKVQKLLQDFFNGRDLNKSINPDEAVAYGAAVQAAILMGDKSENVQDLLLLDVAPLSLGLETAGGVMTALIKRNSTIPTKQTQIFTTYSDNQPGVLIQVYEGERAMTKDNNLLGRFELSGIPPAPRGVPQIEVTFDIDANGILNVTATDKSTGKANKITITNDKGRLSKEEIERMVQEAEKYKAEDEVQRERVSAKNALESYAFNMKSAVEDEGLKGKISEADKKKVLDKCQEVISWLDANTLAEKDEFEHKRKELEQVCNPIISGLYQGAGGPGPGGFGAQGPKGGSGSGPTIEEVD
T5 sequence (Q07817 1-213 limits assumed): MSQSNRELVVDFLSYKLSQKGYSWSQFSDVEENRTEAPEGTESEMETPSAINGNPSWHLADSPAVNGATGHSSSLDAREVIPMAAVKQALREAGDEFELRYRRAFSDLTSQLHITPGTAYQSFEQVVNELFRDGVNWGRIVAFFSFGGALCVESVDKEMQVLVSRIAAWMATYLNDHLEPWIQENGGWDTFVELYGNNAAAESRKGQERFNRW
T7 sequence (Q07817 1-213 limits assumed): as above
T4 sequence (Q92843 1-173 limits assumed): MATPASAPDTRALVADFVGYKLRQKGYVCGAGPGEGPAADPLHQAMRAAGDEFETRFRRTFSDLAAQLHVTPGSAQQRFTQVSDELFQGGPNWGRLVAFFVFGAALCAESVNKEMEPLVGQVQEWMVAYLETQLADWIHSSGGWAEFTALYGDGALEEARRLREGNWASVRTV

What does the source list for CC(C)=CCC[C@]1(C)C=Cc2c(O)c3c(c(CC=C(C)C)c2O1)O[C@]12C(=C[C@@H]4C[C@H]1C(C)(C)O[C@@]2(C/C=C(/C)C(=O)O)C4=O)C3=O [Gambogic acid]?
IC50 (Bcl-B): 0.66 µM; cell cycle arrest (dividing cells): induces G2/M-phase arrest; IC50 (Bfl-1): 1060 nM; suppression of BH3 peptide binding in HTS (Bfl-1; library screen, 10 μM compound): ≥ 50%; IC50 (Mcl-1): 0.79 µM; killing of bax−/− bak−/− MEFs (bax−/− bak−/− MEFs): killed; also recorded: retained cytotoxic activity; tolerability [1]: well tolerated; concentration required for killing 50% of cells (LD50) (tumor cell lines): ~1 µM; concentration giving clearly detectable proteolytic processing of pro-caspase-3 [2]: ≥ 2 µM; inhibition of rhodamine-SMAC peptide binding (BIR3 of XIAP): did not inhibit; effect of Bcl-2 over-expression on cytotoxicity [3]: reduced the sensitivity; IC50 (Bcl-W): 2.02 µM; EC50 [4]: ~200 nM; IC50 (Bcl-XL): 1.47 µM; killing of wild-type MEFs (bax+/+ bak+/+ MEFs): killed; Bax protein levels [5]: increases in Bax protein levels; Bcl-2 protein levels [5]: reductions in Bcl-2 protein levels; transferrin receptor internalization [5]: suppressing transferring receptor internalization; EC50 [6]: ~500 nM; inhibition of FITC-ATP binding (Hsp70): did not inhibit; IC50 (Bcl-2; 100 nM GST-Bcl-2, 5 nM FITC-Bid BH3 peptide, read-out: IC50 (μM) for Gambogic acid): 1.21 µM; sensitivity to displacement of FITC-BH3 peptide among the six proteins (Bcl-2; FIG. 1): the least; concentration for complete restoration of tBid-induced SMAC release ([7]; 20 ng tBid, 2 μg Bcl-2-family protein, 50 μg HeLa mitochondria): 5 µM; restoration of tBid-induced SMAC release ([7]; recombinant Bcl-2, Bcl-XL, Bfl-1, Bcl-W or Mcl-1 added, listed as GA): neutralizes their suppressive effects on mitochondria in a concentration-dependent manner; also recorded: restored tBid-induced SMAC release in a concentration-dependent manner; tBid-induced release of SMAC ([7]; recombinant Bcl-2-family proteins not added): enhanced; IC50 (GST-Bcl-XL): 1500 nM

Which “activity in BH3 displacement assays” value (Bfl-1) does the source give for CC(C)=CCCC1(C)C=Cc2c(O)c3c(c(CC=C(C)C)c2O1)OC12C(=CCCC1C(C)(C)O[C@@]2(C/C=C(\C)C(=O)O)C(=O)O)C3=O (stereo partly shown) [Garcinolic acid] here?
Its value is “greatly reduced activity”.

And the “cytotoxic activity against cultured leukemia cells” value (Jurkat cells [8])?
Its value is “non-toxic”.

For CN[C@@H]1C[C@H]2O[C@@](C)([C@@H]1OC)n1c3ccccc3c3c4c(c5c6ccccc6n2c5c31)C(=O)NC4 [staurosporine, reference compound], which “effect of Bcl-2 over-expression on cytotoxicity” value ([3]; HL-60 Bcl-2 vs NEO-control, 8 hrs) is on record?
The value was “block to apoptosis”.

Which results are given for CC(C)=CCC[C@]1(C)C=Cc2c(O)c3c(c(CC=C(C)C)c2O1)O[C@]12C(C[C@@H]4CC1C(C)(C)O[C@@]2(C/C=C(/C)C(=O)O)C4O)C3=O (stereo partly shown) [tetrahydro-GA]?
activity in BH3 displacement assays (Bfl-1): greatly reduced activity; cytotoxic potency relative to GA (fold less potent) (Jurkat cells [9]): ~50 fold
